Where a SMILES comes first, the peptide text is derived from it.

Assay [1] relates to Caki-1. It is filed as cell-based, human. As to conditions: Caki-1; for Anti-cancer activity (% relative to wild-type peptide) / Decrease in cell survival rate (% relative to wild-type peptide): wild-type peptide = 100%. As to the method:
A total of 3×10^3 cells were inoculated per well on a 96 well plate and cultured in a medium containing 10% FBS for 24 hours, and incubated with 100 μl of a peptide having a gradual increase in concentration at 37° C. for 48 to 72 hours. The survival rate of the cells was measured by using WST-8 solution (Cell Count Reagent SF; Nacalai Tesque, Inc.).
Respective variant peptides were subjected to cell viability assay. Specifically, Caki-1 (American Type Culture Collection (Manassas, Va.) was inoculated in a total amount of 3×10^3 cells per well on a 96 well plate (Nunc™); the cells were cultured in a medium (DMEM (Tesque, Inc.) containing 10% FBS (fetal bovine serum; Biowest)) for 24 hours and incubated with 100 μl of a peptide having a gradual increase in concentration at 37° C. for 48 to 72 hours. The cell survival rate was measured by using WST-8 solution (Cell Count Reagent SF; Nacalai Tesque, Inc.) and compared with that of the wild-type Antp-TPR peptide.
Respective variant peptides were subjected to cell viability assay. Specifically, Caki-1 (American Type Culture Collection (Manassas, Va.) was inoculated in a total amount of 3×10^3 cells per well on a 96 well plate (Nunc™); the cells were cultured in a medium containing 10% FBS for 24 hours and incubated with 100 μl of a peptide having a gradual increase in concentration at 37° C. for 48 to 72 hours. The cell survival rate was measured by using WST-8 solution (Cell Count Reagent SF; Nacalai Tesque, Inc.) and compared with that of the wild-type Antp-TPR peptide.

In assay [2] the test system is cancer cells. The experiment in a line: Cell viability assay, summary statements on cancer cells. Conditions: single mutation in TPR or Antp region of Antp-TPR. The assay is classed as cell-based.

As for `CC[C@H](C)[C@H](NC(=O)[C@H](CCCNC(=N)N)NC(=O)[C@H](C)NC(=O)[C@H](Cc1ccc(O)cc1)NC(=O)[C@H](C)NC(=O)[C@H](CCCCN)NC(=O)[C@H](CCCCN)NC(=O)[C@H](CCCCN)NC(=O)[C@H](Cc1c[nH]c2ccccc12)NC(=O)[C@H](CCCCN)NC(=O)[C@H](CCSC)NC(=O)[C@H](CCCNC(=N)N)NC(=O)[C@H](CCCNC(=N)N)NC(=O)[C@H](CC(N)=O)NC(=O)[C@H](CCC(N)=O)NC(=O)[C@H](Cc1ccccc1)NC(=O)[C@H](Cc1c[nH]c2ccccc12)NC(=O)[C@@H](NC(=O)[C@H](CCCCN)NC(=O)[C@@H](NC(=O)[C@H](CC(N)=O)NC(=O)[C@@H](N)CCCNC(=N)N)[C@@H](C)CC)[C@@H](C)CC)C(=O)NCC(=O)N[C@@H](CC(N)=O)C(=O)N[C@@H](CO)C(=O)N[C@@H](Cc1ccc(O)cc1)C(=O)N[C@@H](Cc1ccccc1)C(=O)N[C@@H](CCCCN)C(=O)O` [Antp Q2N-TPR] (H-RNIKIWFQNRRMKWKKKAYARIGNSYFK-OH; N-terminus and C-terminus assumed), in assay [1], the “Anti-cancer activity (% relative to wild-type peptide)” value is listed as 88.97% and the “Decrease in cell survival rate (% relative to wild-type peptide)” value (shortened to “Decrease … (% relative to wild-type peptide)”) is listed as 52.02%. Besides, the “effect compared with the wild-type protein (summary of mutations)” value in assay [2] is listed as “effect similar to that of the wild-type protein”.
The like results for `CC[C@H](C)[C@H](NC(=O)[C@H](CCCNC(=N)N)NC(=O)[C@H](C)NC(=O)[C@H](Cc1ccc(O)cc1)NC(=O)[C@H](C)NC(=O)[C@H](CCCCN)NC(=O)[C@H](CCCCN)NC(=O)[C@H](CCCCN)NC(=O)[C@H](Cc1c[nH]c2ccccc12)NC(=O)[C@H](CCCCN)NC(=O)[C@H](CCSC)NC(=O)[C@H](CCCNC(=N)N)NC(=O)[C@H](CCCNC(=N)N)NC(=O)[C@H](CC(N)=O)NC(=O)[C@H](CCC(N)=O)NC(=O)[C@H](Cc1ccc(O)cc1)NC(=O)[C@H](Cc1c[nH]c2ccccc12)NC(=O)[C@@H](NC(=O)[C@H](CCCCN)NC(=O)[C@@H](NC(=O)[C@H](CCC(N)=O)NC(=O)[C@@H](N)CCCNC(=N)N)[C@@H](C)CC)[C@@H](C)CC)C(=O)NCC(=O)N[C@@H](CC(N)=O)C(=O)N[C@@H](CO)C(=O)N[C@@H](Cc1ccc(O)cc1)C(=O)N[C@@H](Cc1ccccc1)C(=O)N[C@@H](CCCCN)C(=O)O` [Antp F7Y-TPR] (H-RQIKIWYQNRRMKWKKKAYARIGNSYFK-OH; N-terminus and C-terminus assumed) were, in that order, 29.86%, 14.56% and “effective but with an effect lower than the wild-type protein”.
For `CC[C@H](C)[C@H](NC(=O)[C@H](CCCNC(=N)N)NC(=O)[C@H](C)NC(=O)[C@H](Cc1ccc(O)cc1)NC(=O)[C@H](C)NC(=O)[C@H](CCCCN)NC(=O)[C@H](CCCCN)NC(=O)[C@H](CCCCN)NC(=O)[C@H](Cc1c[nH]c2ccccc12)NC(=O)[C@H](CCCCN)NC(=O)[C@H](CCSC)NC(=O)[C@H](CCCNC(=N)N)NC(=O)[C@H](CCCNC(=N)N)NC(=O)[C@H](CC(N)=O)NC(=O)[C@H](CCC(N)=O)NC(=O)[C@H](Cc1ccccc1)NC(=O)[C@H](Cc1ccc(O)cc1)NC(=O)[C@@H](NC(=O)[C@H](CCCCN)NC(=O)[C@@H](NC(=O)[C@H](CCC(N)=O)NC(=O)[C@@H](N)CCCNC(=N)N)[C@@H](C)CC)[C@@H](C)CC)C(=O)NCC(=O)N[C@@H](CC(N)=O)C(=O)N[C@@H](CO)C(=O)N[C@@H](Cc1ccc(O)cc1)C(=O)N[C@@H](Cc1ccccc1)C(=O)N[C@@H](CCCCN)C(=O)O` [Antp W6Y-TPR] (H-RQIKIYFQNRRMKWKKKAYARIGNSYFK-OH; N-terminus and C-terminus assumed), in assay [1], the “Anti-cancer activity (% relative to wild-type peptide)” value is recorded as 32.99% and the “Decrease … (% relative to wild-type peptide)” value was determined as 15.14%. Further, the “effect compared with the wild-type protein (summary of mutations)” value in assay [2] is “effective but with an effect lower than the wild-type protein”.
On to `CC[C@H](C)[C@H](NC(=O)[C@H](CCCNC(=N)N)NC(=O)[C@H](C)NC(=O)[C@H](Cc1ccc(O)cc1)NC(=O)[C@H](C)NC(=O)[C@H](CCCCN)NC(=O)[C@H](CCCCN)NC(=O)[C@H](CCCCN)NC(=O)[C@H](Cc1ccc(O)cc1)NC(=O)[C@H](CCCCN)NC(=O)[C@H](CCSC)NC(=O)[C@H](CCCNC(=N)N)NC(=O)[C@H](CCCNC(=N)N)NC(=O)[C@H](CC(N)=O)NC(=O)[C@H](CCC(N)=O)NC(=O)[C@H](Cc1ccccc1)NC(=O)[C@H](Cc1c[nH]c2ccccc12)NC(=O)[C@@H](NC(=O)[C@H](CCCCN)NC(=O)[C@@H](NC(=O)[C@H](CCC(N)=O)NC(=O)[C@@H](N)CCCNC(=N)N)[C@@H](C)CC)[C@@H](C)CC)C(=O)NCC(=O)N[C@@H](CC(N)=O)C(=O)N[C@@H](CO)C(=O)N[C@@H](Cc1ccc(O)cc1)C(=O)N[C@@H](Cc1ccccc1)C(=O)N[C@@H](CCCCN)C(=O)O` [Antp W14Y-TPR] (H-RQIKIWFQNRRMKYKKKAYARIGNSYFK-OH; N-terminus and C-terminus assumed), for which, in assay [1], the “Anti-cancer activity (% relative to wild-type peptide)” value turned out to be 83.36% and the “Decrease … (% relative to wild-type peptide)” value amounted to 41.80%. In assay [2], the “effect compared with the wild-type protein (summary of mutations)” value is given as “effect similar to that of the wild-type protein”.
On to `CC[C@H](C)[C@H](NC(=O)[C@H](CCCNC(=N)N)NC(=O)[C@H](C)NC(=O)[C@H](Cc1ccc(O)cc1)NC(=O)[C@H](C)NC(=O)[C@H](CCCCN)NC(=O)[C@H](CCCCN)NC(=O)[C@H](CCCCN)NC(=O)[C@H](Cc1c[nH]c2ccccc12)NC(=O)[C@H](CCCCN)NC(=O)[C@H](CS)NC(=O)[C@H](CCCNC(=N)N)NC(=O)[C@H](CCCNC(=N)N)NC(=O)[C@H](CC(N)=O)NC(=O)[C@H](CCC(N)=O)NC(=O)[C@H](Cc1ccccc1)NC(=O)[C@H](Cc1c[nH]c2ccccc12)NC(=O)[C@@H](NC(=O)[C@H](CCCCN)NC(=O)[C@@H](NC(=O)[C@H](CCC(N)=O)NC(=O)[C@@H](N)CCCNC(=N)N)[C@@H](C)CC)[C@@H](C)CC)C(=O)NCC(=O)N[C@@H](CC(N)=O)C(=O)N[C@@H](CO)C(=O)N[C@@H](Cc1ccc(O)cc1)C(=O)N[C@@H](Cc1ccccc1)C(=O)N[C@@H](CCCCN)C(=O)O` [Antp M12C-TPR] (H-RQIKIWFQNRRCKWKKKAYARIGNSYFK-OH; N-terminus and C-terminus assumed), for which, in assay [1], the “killing effect compared with the wild-type peptide” value is on record as “stronger than that of the wild-type peptide”, the “Anti-cancer activity (% relative to wild-type peptide)” value came out at 102.68% and the “Decrease … (% relative to wild-type peptide)” value worked out at 128.91%. Besides, the “effect compared with the wild-type protein (summary of mutations)” value in assay [2] is “effect higher than the wild-type protein”.
In the same order, the values of `CC[C@H](C)[C@H](NC(=O)[C@H](CCCNC(=N)N)NC(=O)[C@H](C)NC(=O)[C@H](Cc1ccc(O)cc1)NC(=O)[C@H](C)NC(=O)[C@H](CCCCN)NC(=O)[C@H](CCCCN)NC(=O)[C@H](CCCNC(=N)N)NC(=O)[C@H](Cc1c[nH]c2ccccc12)NC(=O)[C@H](CCCCN)NC(=O)[C@H](CCSC)NC(=O)[C@H](CCCNC(=N)N)NC(=O)[C@H](CCCNC(=N)N)NC(=O)[C@H](CC(N)=O)NC(=O)[C@H](CCC(N)=O)NC(=O)[C@H](Cc1ccccc1)NC(=O)[C@H](Cc1c[nH]c2ccccc12)NC(=O)[C@@H](NC(=O)[C@H](CCCCN)NC(=O)[C@@H](NC(=O)[C@H](CCC(N)=O)NC(=O)[C@@H](N)CCCNC(=N)N)[C@@H](C)CC)[C@@H](C)CC)C(=O)NCC(=O)N[C@@H](CC(N)=O)C(=O)N[C@@H](CO)C(=O)N[C@@H](Cc1ccc(O)cc1)C(=O)N[C@@H](Cc1ccccc1)C(=O)N[C@@H](CCCCN)C(=O)O` [Antp K15R-TPR] (H-RQIKIWFQNRRMKWRKKAYARIGNSYFK-OH; N-terminus and C-terminus assumed) are “stronger than that of the wild-type peptide”, 110.21%, 687.99% and “effect similar to that of the wild-type protein”.
Turning to `CC[C@H](C)[C@H](NC(=O)[C@H](CCCNC(=N)N)NC(=O)[C@H](C)NC(=O)[C@H](Cc1ccc(O)cc1)NC(=O)[C@H](C)NC(=O)[C@H](CCCCN)NC(=O)[C@H](CCCCN)NC(=O)[C@H](CCCCN)NC(=O)[C@H](Cc1c[nH]c2ccccc12)NC(=O)[C@H](CCCCN)NC(=O)[C@H](CCSC)NC(=O)[C@H](CCCNC(=N)N)NC(=O)[C@H](CCCNC(=N)N)NC(=O)[C@H](CC(N)=O)NC(=O)[C@H](CCC(N)=O)NC(=O)[C@H](Cc1ccccc1)NC(=O)[C@H](Cc1c[nH]c2ccccc12)NC(=O)[C@H](CC(C)C)NC(=O)[C@H](CCCCN)NC(=O)[C@@H](NC(=O)[C@H](CCC(N)=O)NC(=O)[C@@H](N)CCCNC(=N)N)[C@@H](C)CC)C(=O)NCC(=O)N[C@@H](CC(N)=O)C(=O)N[C@@H](CO)C(=O)N[C@@H](Cc1ccc(O)cc1)C(=O)N[C@@H](Cc1ccccc1)C(=O)N[C@@H](CCCCN)C(=O)O` [Antp 15L-TPR] (H-RQIKLWFQNRRMKWKKKAYARIGNSYFK-OH; N-terminus and C-terminus assumed), in assay [1], the “Anti-cancer activity (% relative to wild-type peptide)” value was found to be 73.75% and the “Decrease … (% relative to wild-type peptide)” value came out at 31.29%. Besides, the “effect compared with the wild-type protein (summary of mutations)” value in assay [2] was “effective but with an effect lower than the wild-type protein”.

The values are drawn from US8546320B2, “Hsp9O-targeted anti-cancer chimeric peptide” (Kyoto University, priority 2008, dated 2013).
